“Also recorded” adds a separate entry of the source.
Tests used:
[1] = test system: permeabilized human platelets
Protocol: (§1) Lactate production of intact human platelets was determined in PBS containing 10 mM glucose.
Subsequently the FADH2-linked substrate succinate (10 mM) was given to determine convergent complex I- and II-dependent OXPHOS capacity (OXPHOSCI+II). […] Finally, the artificial complex IV substrate N,N,N′,N′-tetramethyl-p-phenylenediamine dihydrochloride (TMPD, 0.5 mM) was added and the complex IV inhibitor sodium azide (10 mM) was given to measure complex IV activity and chemical background, respectively.

[2] = test system: intact human platelets; test: Lactate production and pH of intact human platelets; format: cell-based; conditions: metformin 1 and 10 mM, phenformin 0.5 mM, rotenone 2 μM
Protocol: (§2) Lactate levels are determined every 2 h using the Lactate Pro™ 2 blood lactate test meter (Arkray, Alere AB, Lidingö, Sweden) or similar types of measurements. Incubation is performed at 37° C. pH is measured at start, after 4 and after 8 h (or more frequently) of incubation using a Standard pH Meter, e.g. PHM210 (Radiometer, Copenhagen, Denmark). Drug candidates are added to the assay from start or following 30-60 min at concentrations within the range 10 μM-5 mM. […] In order to evaluate the specificity of the drug candidate, it is also tested in combination with a down-stream inhibitor of respiration such as the complex III inhibitor Antimycin at 1 μg/mL, which should abolish the effect of the drug candidate and restore the production of lactate. The use of antimycin is therefore also a control for undue effects of drug candidates on the lactate producing ability of the cells used in the assay.
Incubation was performed at 37° C. at a stirrer speed of 750 rpm, and pH was measured at start, after 4 and after 8 h of incubation (n=4) using a PHM210 Standard pH Meter (Radiometer, Copenhagen, Denmark).

[3] = test system: intact human platelets; test: Intervention on rotenone- or metformin-induced lactate production with cell-permeable succinate prodrugs; format: cell-based; conditions: for effect on metformin-induced lactate production: 10 mM metformin, consecutive additions of 250 μM each 30 minutes; for effect on rotenone-induced lactate production: rotenone 2 μM, repeated additions of 250 μM each 30 minutes
Protocol: as §2
Lactate levels were measured in intervals of 30 min with the onset of the experiment.

[4] = test system: intact cells; test: Assays exemplified for enhancement of mitochondrial energy producing function (not specified which); format: cell-based, human
Protocol: An increase in respiration rate in the described protocol is tightly coupled to ATP synthesis by oxidative phosphorylation unless cells are uncoupled (i.e. proton leak without production of ATP). Uncoupling is tested for by addition of the ATP synthase inhibitor oligomycin (1-2 μg mL^−1) in a protocol 3 where the extent of uncoupling corresponds to the respiratory rate following oligomycin addition. In the second protocol the same buffer is used as described above. […] In the third protocol, the same buffer as described above is used. […] Subsequently, the ATP-synthase-inhibitor Oligomycin is added. A reduction in respiration is a measure of how much of the oxygen consumption that is coupled to ATP synthesis. No, or only a slight, reduction indicate that the compound is inducing a proton leak over the inner mitochondrial membrane. The uncoupler FCCP is then titrated to induce maximum uncoupled respiration. […] The experiment is terminated by the addition of 1 μg/mL of the complex III inhibitor Antimycin to measure non-mitochondrial oxygen consumption. Intact human blood cells are incubated in plasma from the same donor. […] The experiment is terminated by addition of Antimycin at final concentration 1 μg/mL and any residual non-mitochondrial oxygen consumption is measured.

[5] = test system: intact cells; test: Screening assay 3: assay to assess uncoupling in intact cells (high-resolution respirometry); format: cell-based, human; set-up: key: The response in each parameter is graded either +, ++ or +++ in increasing order of potency; The response in each parameter is graded either +, ++ or +++ in increasing order of potency; The response in each parameter is graded either +, ++ or +++ in increasing order of potency; (+): Brackets [( )] indicate an intermediate effect, i.e. (+++) is between ++ and +++; conditions: for Convergent (Routine): increase in mitochondrial oxygen consumption induced by the compound, screening assay 3, 1 mM compound; for Uncoupling: level of oxygen consumption after addition of oligomycin, screening assay 3
Protocol: In the third protocol, the same buffer as described above is used. […] Subsequently, the ATP-synthase-inhibitor Oligomycin is added. A reduction in respiration is a measure of how much of the oxygen consumption that is coupled to ATP synthesis. No, or only a slight, reduction indicate that the compound is inducing a proton leak over the inner mitochondrial membrane. The uncoupler FCCP is then titrated to induce maximum uncoupled respiration. […] The experiment is terminated by the addition of 1 μg/mL of the complex III inhibitor Antimycin to measure non-mitochondrial oxygen consumption.

[6] = test system: intact cells; test: Screening assay 2: enhancement and inhibition of mitochondrial energy producing function in intact cells (FCCP uncoupled); format: cell-based, human; set-up: key to Convergent (FCCP): The response in each parameter is graded either +, ++ or +++ in increasing order of potency; The response in each parameter is graded either +, ++ or +++ in increasing order of potency; The response in each parameter is graded either +, ++ or +++ in increasing order of potency; (+): Brackets [( )] indicate an intermediate effect, i.e. (+++) is between ++ and +++; conditions: for Convergent (FCCP): increase in mitochondrial oxygen consumption, screening assay 2, uncoupled conditions; for Toxicity: lowest concentration during compound titration at which a decrease in oxygen consumption is seen, screening assay 2
Protocol: (§3) Measurement of mitochondrial respiration is performed in a high-resolution oxygraph (Oxygraph—2k, Oroboros Instruments, Innsbruck, Austria) at a constant temperature of 37° C. Isolated human platelets, white blood cells, fibroblasts, human heart muscle fibers or other cell types containing live mitochondria are suspended in a 2 mL glass chamber at a concentration sufficient to yield oxygen consumption in the medium of ≧10 pmol O2 s^−1 mL^−1.
In the second protocol the same buffer is used as described above. After basal respiration is established, the mitochondrial uncoupler FCCP is added at a concentration of 2 nM to increase metabolic demand.

[7] = test system: cells with inhibited respiratory complex I; test: Screening assay 1: enhancement of mitochondrial energy producing function in cells with inhibited respiratory complex I; format: cell-based, human; set-up: key: The response in each parameter is graded either +, ++ or +++ in increasing order of potency; The response in each parameter is graded either +, ++ or +++ in increasing order of potency; The response in each parameter is graded either +, ++ or +++ in increasing order of potency; (+): Brackets [( )] indicate an intermediate effect, i.e. (+++) is between ++ and +++; conditions: increase in mitochondrial oxygen consumption in cells with inhibited complex I
Protocol: as §3
Cells are placed in a buffer containing 110 mM sucrose, HEPES 20 mM, taurine 20 mM, K-lactobionate 60 mM, MgCl2 3 mM, KH2PO4 10 mM, EGTA 0.5 mM, BSA 1 g/l, pH 7.1. […] Compounds dissolved in DMSO are titrated in a range of 10 μM to 10 mM final concentration. Subsequently, cell membranes are permeabilised with digitonin (1 mg/1*10^6 plt) to allow entry of extracellularly released energy substrate or cell impermeable energy substrates. After stabilized respiration, Succinate 10 mM is added as a reference to enable respiration downstream of complex I. After the respiration stabilized the experiment is terminated by addition of Antimycin at final concentration 1 μg/mL and any residual non-mitochondrial oxygen consumption is measured. An increase in respiration rate in the described protocol is tightly coupled to ATP synthesis by oxidative phosphorylation unless cells are uncoupled (i.e. proton leak without production of ATP). […]

[8] = test system: Intact human blood cells with inhibited complex I; test: Screening assay 4: enhancement of mitochondrial energy producing function in cells with inhibited respiratory complex I in human plasma; format: cell-based; set-up: key: The response in each parameter is graded either +, ++ or +++ in increasing order of potency; The response in each parameter is graded either +, ++ or +++ in increasing order of potency; The response in each parameter is graded either +, ++ or +++ in increasing order of potency; (+): Brackets [( )] indicate an intermediate effect, i.e. (+++) is between ++ and +++; conditions: increase in mitochondrial oxygen consumption
Protocol: as §3
Intact human blood cells are incubated in plasma from the same donor. […] Compounds dissolved in DMSO are titrated in a range of 10 μM to 10 mM final concentration. The experiment is terminated by addition of Antimycin at final concentration 1 μg/mL and any residual non-mitochondrial oxygen consumption is measured.

[9] = test system: intact PBMCs; test: Lactate release of intact PBMCs; format: cell-based, human; conditions: 10 mM metformin, data not shown
[10] = test system: intact human platelets; test: Mitochondrial respiration in intact human platelets (respirometry); format: cell-based; conditions: for routine respiration change after 60 min: compared to first measurement after addition
Protocol: as §1
Routine respiration was followed for 60 min at 37° C. before the ATP-synthase inhibitor oligomycin (1 μg mL^−1) was added to assess LEAK respiration. Maximal uncoupled respiratory electron transport system capacity supported by endogenous substrates (ETS) was reached by titration of FCCP.

[11] = test system: permeabilized human peripheral blood mononuclear cells; test: Mitochondrial respiration in permeabilized human PBMCs (respirometry); format: cell-based; conditions: PBMC, read-out: IC50 (OXPHOSCI respiration)
Protocol: Real-time respirometric measurements were performed using high-resolution oxygraphs (Oxygraph-2k, Oroboros Instruments, Innsbruck, Austria). The experimental conditions during the measurements were the following: 37° C., 2 mL active chamber volume and 750 rpm stirrer speed. […] Settings, daily calibration and instrumental background corrections were conducted according to the manufacturer's instructions. […] All measurements were performed at a platelet concentration of 200×10^6 cells per mL or a PBMC concentration of 5×10^6 cells per mL. […] Maximal uncoupled respiratory electron transport system capacity supported by convergent input through complex I and […] ) was evaluated by subsequent titration with the protonophore carbonyl-cyanide p-(trifluoromethoxy) phenylhydrazone (FCCP). […] The complex III inhibitor antimycin (1 μg mL^-1) was then given to reveal residual oxygen consumption (ROX). […] Complex IV activity was calculated by subtracting the sodium azide value from the TMPD value. With exception of complex IV activity, all respiratory states were measured at steady-state and corrected for ROX. Complex IV activity was measured after ROX determination and not at steady-state.

[12] = 10 mM metformin plus prodrug, 250 μM each 30 minutes

SMILES: [H]/N=C(/N)N/C(=N/[H])NCCc1ccccc1 [phenformin]
- ETSCII capacity and complex IV activity ([1]; compared to controls): not ETSCII or respiration specific to complex IV
- fold more potent inhibition of OXPHOSCI than metformin ([1]; phenformin versus metformin): 20 fold
- IC50 ([1]; read-out: IC50 (OXPHOSCI respiration), complex I substrates): 58 µM
- lactate production over 8 h compared to control [2]: significantly more lactate

SMILES: CC(=O)OC(C)OC(=O)CCC(=O)OC(C)OC(C)=O (stereo not shown) [NV189]
- rate of lactate production [3, 12]: 0.55 mmol lactate (200·10^9 trc·h)^−1
- effect on metformin-induced lactate production [3]: significantly decreased
- rate of lactate production ([3]; rotenone 2 μM plus antimycin 1 μg/mL plus prodrug): 0.89 mmol lactate (200·10^6trc·h)^−1
- effect on rotenone-induced lactate production [3]: attenuated; also recorded: brought back to normal

SMILES: COC(=O)CCC(=O)O [monomethyl succinate]
- activity in the assays exemplified [4]: inactive

SMILES: CC(=O)OCOC(=O)CCC(=O)OCOC(C)=O [NV118]
- rate of lactate production [3, 12]: 0.43 mmol lactate (200·10^9 trc·h)^−1
- effect on metformin-induced lactate production [3]: significantly decreased
- effect on rotenone-induced lactate production [3]: attenuated

SMILES: CC(=O)OC(CCCN1C(=O)c2ccccc2C1=O)OC(=O)CCC(=O)O (stereo not shown) [01-150, 4-(1-acetoxy-4-(1,3-dioxoisoindolin-2-yl)butoxy)-4-oxobutanoic acid]
- Convergent (Routine) [5]: +++
- Uncoupling [5]: (+)
- Convergent (FCCP) [6]: +
- Toxicity [6]: 2 mM
- CII [7]: ++
- CII (plasma) [8]: (+)

SMILES: COC(=O)CCC(=O)OC [dimethyl succinate]
- activity in the assays exemplified [4]: inactive

SMILES: CCOC(=O)CCC(=O)OCC [Diethyl succinate]
- activity in the assays exemplified [4]: inactive

SMILES: CN(C)C(=N)N=C(N)N [metformin]
- lactate release [9]: increased lactate release
- routine respiration change after 60 min ([10]; 1 mM): −17.27%
- routine respiration reduction after whole blood incubation ([10]; 1 mM, whole blood incubated over 18 h before platelet isolation): 30.49%
- routine respiration change after 60 min ([10]; 10 mM): −28.61%
- routine respiration change after 15 min compared to control ([10]; 100 mM, 15 min of exposure): −39.77%
- routine respiration change after 60 min ([10]; 100 mM): −81.78%
- IC50 [11]: 450 µM

SMILES: O=C(O)CCC(=O)O [succinate, reference compound]
- effect on metformin-induced lactate production [3]: did not reduce the metformin-induced production of lactate; also recorded: did not change this

SMILES: CC(=O)OC(CCCOC(=O)CCC(=O)O)OC(=O)CCC(=O)O (stereo not shown) [01-134]
- Convergent (Routine) [5]: ++
- Uncoupling [5]: (+)
- Convergent (FCCP) [6]: (+)
- Toxicity [6]: 10 mM
- CII [7]: (+)
- CII (plasma) [8]: (+)

SMILES: CC(=O)OCOC(=O)CCC(=O)OC(C)OC(C)=O (stereo not shown) [NV241]
- rate of lactate production [3, 12]: 0.43 mmol lactate (200·10^9 trc·h)^−1
- effect on metformin-induced lactate production [3]: significantly decreased
- effect on rotenone-induced lactate production [3]: attenuated
